The values below come from patent US20110177180A1, “HERBAL COMPOSITION AND METHOD FOR THE TREATMENT OF VIRAL INFECTION” (PIRAMAL LIFE SCIENCES LIMITED, priority 2008, published 2011).

Broadly, the inhibition is the percentage by which the read-out fell short of the control.

Assay [1] relates to HSV-2. Description: CPE inhibition assay - crystal violet staining method. In kind it is cell-based. The note with it: Human alphaherpesvirus 2; 25 μg/mL; Vero cells, HSV-2 100 TCID50, 48 hours. As to the method: The assay was designed to detect agents (in this case, the extracts) acting at any stage of the virus reproductive cycle. The assay was done as reported in Indian J. Med. Res., 2004, 120:24-29.
Vero cells (obtained in step 1 of Example 10) were propagated at a density of 1×10^4 cells/well in 96 well plate and incubated at 37° C. in a CO2 incubator for 24 hours to form a monolayer. […] Appropriate controls were included such as Vero cells alone (cell control), Vero cells with virus (virus control) and Vero cells with virus and the standard compound acyclovir. Acyclovir was checked at the following concentrations (DMSO stock of 20 mg/mL of acyclovir was diluted to 100 μg/mL with DMEM containing 2% FBS): 25 μg/mL, 3.125 μg/mL, 1.56 μg/mL and 0.78 μg/mL and 0.39 μg/mL. After one hour, cells were infected with a multiplicity of infection (moi) of 100 TCID50 of viral dose per well using viral stock obtained in step 2 of Example 10. The infected cells were incubated with maintenance medium (DMEM with 2% FBS) for another 48 hours. […] The staining solution was aspirated out and the plates rinsed using distilled water until all excess stain was washed away. The plates were allowed to dry for 24 hours. CPE was evaluated visually, after staining the plaques, and microscopically and graded according to the percentage of CPE inhibition as compared to controls. […]

Assay [2] concerns HSV-2. Description: Mouse vaginal model of HSV-2 infection (Example 15). In kind it is in vivo, BALB/c mice. The conditions noted are these: 225mg/kg. As to the method:
(§1) Female BALB/c mice of eight weeks age and body weight 18-20 g were used for intravaginal (IVAG) challenge (vaginal inoculation) with the virus (using viral stock of step 2 of example 10). Five days prior to the IVAG challenge, mice were injected subcutaneously (SC) with 2 mg of progesterone (Depo-Provera®; Pfizer, Belgium) in the upper back, using a 29-gauge needle. On the day of challenge, mice were anesthetized with Ketamine (150 mg/kg) and Xylazine (10 mg/kg) by intraperitoneal injection. Mice were inoculated intravaginally with 5×10^3 pfu of the virus using a micropipette in a total volume of 20 μL DMEM. […] Each group had ten animals. Animals were treated three times a day with the treatment intervals of 4 hours for 5 days. 20 μL of the above samples were injected into the vaginal vault using micropipette.
The animals were assessed daily for survival and extravaginal disease signs through 21 days of post inoculation (PI). The severity of the viral disease (extravaginal signs of disease) was quantified using a well-established lesion score scale, also known as five-point scale as follows: • 0: no apparent infection; • 1: few isolated papules and slight redness of extravaginal tissue; • 2: few isolated papules, ulcers, and/or eschar and/or swelling and redness of extravaginal tissue; • 3: multiple fused ulcers/eschars, moderate swelling and redness of extravaginal tissue with extension to surrounding tissue; • 4: ulceration with severe redness and swelling of extravaginal tissue with extension to surrounding tissue, rear leg paralysis; and • 5: severe ulceration of extravaginal tissue with extension to surrounding tissue, weight loss, rear leg paralysis and death.
The assay was performed as mentioned in Example 14 with modifications as mentioned below: • (i) Mice were inoculated intravaginally with 2×10^4 pfu of the virus instead of 5×10^3 pfu in Example 14. • (ii) Evaluation was done by topical application of the formulations (Formulation I, Formulation II and Formulation III) instead of injection of extracts into vaginal vault of the animals in Example 14. • (iii) One more group of animals was studied: “infection control group” in which the mice were inoculated with the virus but were not treated.
Extract of Example 1 (dissolved in PBS) was injected into the vaginal vault using micropipette. Formulation I, Formulation II and Formulation III were applied topically (25 mg) thrice daily for a 5 day period. 25 mg of Formulation IB, IIB or IIIB correspond to 375 mg/kg dose; 25 mg of Formulation IC, IIC or IIIC correspond to 750 mg/kg dose and 25 mg of Formulation ID, IID and IIID correspond to 1500 mg/kg dose evaluated in the animals.

In assay [3] the test system is HSV-2. Description: Mouse vaginal model of HSV-2 infection (Example 14). In kind it is in vivo, BALB/c mice. The note with it: 75 mg/kg in PBS intravaginal, three times a day for 5 days; 5×10^3 pfu; 21 days. As to the method: The assay was done as reported in Antiviral Research, 2006, 69:77-85.
as §1
The animals were assessed daily for survival and extravaginal disease signs through 21 days of post inoculation (PI). […]

[4] abbreviates: positive control in evaluation of Formulation I.
Where [5] appears, read: positive control in evaluation of Formulation II.
Setting [6] is: positive control in evaluation of Formulation III.
Where [7] appears, read: positive control in evaluation of extract of Example 1.

Structures are written as SMILES.

In the case of `Nc1nc2c(ncn2COCCO)c(=O)[nH]1` [Acyclovir], in the assay with HSV-2 [1], the inhibition at 25 µg/mL was 76 to 100%. In the assay on HSV-2 [2] (setting [4]), the extravaginal disease result is “None of the mice showed extravaginal disease” and the survival rate was determined as 100%. Further, in the assay with HSV-2 [2] (setting [5]), the “course of extravaginal disease” value is on record as “continued till day 21”, the “day on which extravaginal disease appeared” value worked out at 18 days and the survival rate stood at 100%. For the same compound, in the assay with HSV-2 [2] (setting [6]), the extravaginal disease entry was “None of the mice showed extravaginal disease” and the survival rate is recorded as 100%. For the same compound, in the assay with HSV-2 [2] (setting [7]), the extravaginal disease result is reported as “None of the mice showed extravaginal disease” and the survival rate amounted to 100%. In the assay on HSV-2 [3], the “deaths during the experiment” value was “None of the mice died during the experiment” and the “signs of extravaginal disease” value was “None of the mice showed signs of extravaginal disease”.
